B1: H5 peptide (14-residue synthetic peptide encompassing the H5 / putative regulatory switch-helix region of FimA) (peptide)
peptide: Ac-SANASPAFASAVKK-NH2
notes: Stretch of FimA of Dictyostelium discoideum (UniProtKB P54680) encompassing the putative regulatory domain (H5); Limits worked out from the printed positions N81, P84 and F86; also called synthetic H5 peptide; source: synthetic peptide, obtained from Genscript (purity over 95%)

Key:
[1] = target: T1, FimA-EF-N81ter (Dictyostelium discoideum, UniProt P54680); experiment: 1H, […]-HSQC NMR titration; type: binding
T1 construct: EF-hand headpiece domain truncated before switch helix H5 (N81ter), residues 1-80; N-terminal 6His-tag with TEV site, tag cleaved; E. coli BL21(DE3)
T1 sequence (P54680 1-80): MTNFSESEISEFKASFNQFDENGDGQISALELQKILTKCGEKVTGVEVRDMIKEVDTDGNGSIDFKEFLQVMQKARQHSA

[2] = target: T2, FimA-EF (Dictyostelium discoideum, UniProt P54680); experiment: 1H, […]-HSQC NMR titration (chemical shift changes); type: binding; conditions: 25 °C, pH 7.0; Ca2+-bound; site of switch helix H5
T2 construct: EF-hand headpiece domain with switch helix H5, residues 1-93; pET15b, N-terminal 6His-tag with TEV site, tag cleaved; E. coli BL21(DE3)
T2 sequence (P54680 1-93): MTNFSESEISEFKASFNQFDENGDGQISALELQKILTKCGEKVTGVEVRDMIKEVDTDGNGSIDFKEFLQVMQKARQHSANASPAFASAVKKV

[3] = target: L-plastin H5 peptide H5 (Homo sapiens) (UniProt P13796); conditions: cited from earlier work
[4] = target: T3, FimA-EF-N81ter (EF-hand domain of the Dictyostelium discoideum FimA headpiece, residues 1-80, lacking the H5 … (Dictyostelium discoideum, UniProt P54680 1-80)); experiment: NMR titration; 15N-labelled FimA-EF-N81ter titrated with the H5 peptide, 1H,15N-HSQC, chemical shift changes fitted, fast exchange; 25 °C, 100 mM KCl, 20 mM Bis-Tris pH 7.0, 10 mM DTT; conditions: both partners purified
T3 construct: FimA (fimbrin) of Dictyostelium discoideum, UniProtKB P54680, headpiece truncated by a stop codon at N81: residues 1-80, omits the entire H5 region; Made by site-directed mutagenesis of the synthetic FimA 1-93 gene in pET15b (NdeI/XhoI) with an N-terminal 6His-tag and a TEV site; The methods say the last 12 amino acids are deleted, but 1-80 of 1-93 removes 13; also called …
T3 sequence (looked up): T1 sequence (P54680 1-80)

Molecule | Kd [1] [µM] | 1H,15N-HSQC NMR titration (chemical shift changes) [2] | Kd [3] [µM] | Kd [4] [µM]
CN1CCN(CCCN2c3ccccc3Sc3ccc(C(F)(F)F)cc32)CC1 [TFP] | 1.5 | Both TFP and W7 caused significant chemical shift changes in the HSQC spectrum of FimA-EF | – | –
NCCCCCCNS(=O)(=O)c1cccc2c(Cl)cccc12 [W7] | 3.8 | Both TFP and W7 caused significant chemical shift changes in the HSQC spectrum of FimA-EF | – | –
L-plastin EF-hand domain (from UniProt P13796) | – | – | 3.5 | –
B1 | – | – | – | 300

— PMC10533516, “The Dictyostelium discoideum FimA protein, unlike yeast and plant fimbrins, is regulated by calcium similar to mammalian plastins” (Scientific Reports, 2023)
